Results on eight compounds are retold here after patent US20090065745A1, “ANTI-DEGRADATION AGENT” (priority 2005, published 2009).

One series in a line: Solubility in hexane (oil solubility). Type of series: physicochemical. To be noted: at 30° C. An excerpt: However, the solubility in triglyceride of the compound varies depending upon constitutional fatty acids of the triglyceride. Therefore, in the present invention, the oil insolubility and oil solubility of the compound is defined by a solubility thereof in hexane.
tocopherol [Vitamin E (tocopherol)]: the “Oil solubility class (solubility in hexane)” value is given as “Oil-soluble (oil-soluble antioxidant having a solubility in 1 L of hexane of not less than 50 g as measured at 30° C.)” and the Solubility in hexane is over 500 mg/mL.

The next series is described as follows: Measurement of dynamic hydration number (relaxation time T1). Type of series: physicochemical. Conditions: at 25° C., in water. An excerpt: First, the concept of the “dynamic hydration number” used in the present invention is explained. It is considered that the initial reaction of deterioration is caused at an “interface”, i.e., any of interfaces between gas and liquid, between liquid and solid and between liquid and liquid. In the case of almost all of foods, it is considered that the initial reaction of deterioration thereof is caused at an interface between oil and water. Here, if consideration is mainly made on the case where a configuration of the food is an aqueous system, water is generally classified into two types, i.e., liberated water and combined water. It is considered that among these waters, the liberated water frequently constitutes a factor relating to the initial reaction of deterioration.
The control of the liberated water can be realized by constraining a free motion of water molecules. The “dynamic hydration number” of the compound is an index showing a degree of constraint of free motion of water when the compound is dissolved in water. […] The dynamic hydration number of the compound may be readily measured, for example, by the following method.
25.0 mg of p-hydroxybenzoic acid was dissolved in pure water, and pure water was further added the resultant solution to obtain 50 mL of a solution (blank). The blank was added to samples used in amounts of 1.008 g and 1.512 g, respectively, to prepare sample solutions 1 and 2 having total weights of 4.013 g and 3.001 g, respectively. Using a spectrophotometer “Inova 500” manufactured by Varian Corp., the relaxation time (T1) of the respective sample solutions was measured at 25° C. to determine a dynamic hydration number thereof.
Turning to `NCCCC[C@H](N)C(=O)O` [Lysine], the “Dynamic hydration number (nDHN)” value is 3.0.

As for `OC[C@H]1O[C@@](CO)(O[C@H]2O[C@H](CO)[C@@H](O)[C@H](O)[C@H]2O)[C@@H](O)[C@@H]1O` [Sucrose], the “Dynamic hydration number (nDHN)” value is reported as 15.0.

For the compound Maltotriose, the “Dynamic hydration number (nDHN)” value worked out at 204.

Consider `CC(C)[C@H](N)C(=O)O` [Valine], for which the “Dynamic hydration number (nDHN)” value is 21.0.

Turning to `O=C(CO)[C@@H](O)[C@H](O)[C@H](O)CO` [Fructose], the “Dynamic hydration number (nDHN)” value is 16.5.

Turning to Maltotriol, the “Dynamic hydration number (nDHN)” value is given as 211.

Turning to `O=C[C@H](O)[C@@H](O)[C@H](O)CO` [Xylose], the “Dynamic hydration number (nDHN)” value was found to be 15.5.
